{"source": "patent US20170172994A1", "about": "“COMPOSITIONS AND METHODS FOR TREATING BACTERIAL INFECTIONS” (WOCKHARDT LIMITED, priority 2013, published 2017)", "key": {"P. mirabilis G 186 [1]": {"system": "P. mirabilis G 186", "test": "Minimum filamentation / spheroplasting concentration", "details": "Proteus mirabilis, G186", "excerpt": "(§6) The term “MSC” as used herein refers to minimum spheroplasting concentration, which is the minimum concentration of an antibacterial agent at which about 80% of bacterial cells covert into spheroplasts.\n(§7) The term “MFC” as used herein refers to minimum filamentation concentration, which is the minimum concentration of an antibacterial agent at which about 80% of bacterial cells get elongated to form filament like structures."}, "K. pneumoniae B88 [2]": {"system": "K. pneumoniae B88", "test": "Minimum filamentation / spheroplasting concentration", "details": "Klebsiella pneumoniae, B88", "excerpt": "as §6, §7"}, "[3]": {"system": "MDR Klebsiella pneumoniae B 88 producing NDM, SHV & TEM beta-lactamases", "test": "Time kill study at MFC and MSC", "format": "cell-based", "details": "for Bacterial count: Cefepime 8 mcg/ml (MFC), Compound of Formula (III) 0.12 mcg/ml (MSC), Imepenem 8 mcg/ml", "procedure": "(§1) The synergistic killing effect of the combinations according to invention was studied by performing time kill studies. In a typical time kill study, the freshly grown cultures were diluted to the required cell density (initial starting inoculum) in Cation adjusted Muller Hinton broth medium (BD, USA). The antibacterial agents (either alone or in combination) at the required concentrations were added into the culture-containing medium. The samples were incubated under shaking condition (120 rpm) at 37° C. Enumeration of viable bacterial count was done every 2 hour by diluting in normal saline and plating on to the Tryptic Soya Agar plates (BD, USA). The plates were incubated for 24 hours to arrive at the viable bacterial count. The results are expressed in terms of Log CFU per ml. In general, the decrease of 1 Log CFU/ml, corresponds to 90% killing of bacteria. Similarly, 2 Log CFU/ml reductions indicates to 99% killing of bacteria and 3 Log CFU/ml reductions is equal to 99.9% killing of bacteria."}, "[4]": {"system": "MDR P. mirabilis G 186 producing NDM & TEM β-lactamases", "test": "Time kill study at MFC and MSC", "format": "cell-based", "details": "for Bacterial count: Cefepime 8 mcg/ml (MFC), Compound of Formula (III) 0.25 mcg/ml (MSC), Imepenem 8 mcg/ml", "procedure": "as §1"}, "Pseudomonas PBP 5/6": {"biological_target": "Pseudomonas PBP 5/6 (Pseudomonas aeruginosa, UniProt G3XD74)", "sequence (G3XD74 entry or part of it)": "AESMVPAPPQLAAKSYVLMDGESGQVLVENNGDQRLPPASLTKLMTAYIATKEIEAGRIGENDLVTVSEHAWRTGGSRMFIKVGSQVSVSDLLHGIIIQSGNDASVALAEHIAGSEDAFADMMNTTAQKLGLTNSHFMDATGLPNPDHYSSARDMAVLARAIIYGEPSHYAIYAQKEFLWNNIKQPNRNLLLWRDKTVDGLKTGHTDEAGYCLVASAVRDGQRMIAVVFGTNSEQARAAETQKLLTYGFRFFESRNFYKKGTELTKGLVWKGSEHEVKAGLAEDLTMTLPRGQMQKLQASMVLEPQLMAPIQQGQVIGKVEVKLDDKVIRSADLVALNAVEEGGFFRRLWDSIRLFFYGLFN", "test": "PBP binding assay (Bocillin FL competition)", "procedure": "(§2) The phrase “selective and high affinity PBP binder” refers to a PBP binder which binds to only one PBP with very high affinity. In general, the term “selective and high affinity PBP binder” also includes those binders where a substantial fraction of binder selectively binds to only one PBP with high affinity. […]. The term “IC50 value” of a compound refers to the concentration of the compound that reduces the binding of Bocillin-FL to PBPs by 50% as compared to when no compound was added to the reaction.\n(§3) A compound of Formula (III) was prepared using the procedure disclosed in PCT International Application No. PCT/IB2012/054290 and was evaluated for its PBP binding affinity profile. […] The reaction mixtures were then denatured with 20 μl each of SDS-denaturing solution at 100° C. for 3 min PBPs were separated through 10% SDS polyacrylamide gel electrophoresis (Bio-Rad Laboratories, Hercules, Calif.). The protein gels were rinsed in water immediately after electrophoresis. […] […]."}, "Pseudomonas PBP 1A": {"biological_target": "T1, Pseudomonas PBP 1A (Pseudomonas aeruginosa, UniProt Q07806)", "T1 construct": "endogenous in cells", "T1 sequence (Q07806 whole entry)": "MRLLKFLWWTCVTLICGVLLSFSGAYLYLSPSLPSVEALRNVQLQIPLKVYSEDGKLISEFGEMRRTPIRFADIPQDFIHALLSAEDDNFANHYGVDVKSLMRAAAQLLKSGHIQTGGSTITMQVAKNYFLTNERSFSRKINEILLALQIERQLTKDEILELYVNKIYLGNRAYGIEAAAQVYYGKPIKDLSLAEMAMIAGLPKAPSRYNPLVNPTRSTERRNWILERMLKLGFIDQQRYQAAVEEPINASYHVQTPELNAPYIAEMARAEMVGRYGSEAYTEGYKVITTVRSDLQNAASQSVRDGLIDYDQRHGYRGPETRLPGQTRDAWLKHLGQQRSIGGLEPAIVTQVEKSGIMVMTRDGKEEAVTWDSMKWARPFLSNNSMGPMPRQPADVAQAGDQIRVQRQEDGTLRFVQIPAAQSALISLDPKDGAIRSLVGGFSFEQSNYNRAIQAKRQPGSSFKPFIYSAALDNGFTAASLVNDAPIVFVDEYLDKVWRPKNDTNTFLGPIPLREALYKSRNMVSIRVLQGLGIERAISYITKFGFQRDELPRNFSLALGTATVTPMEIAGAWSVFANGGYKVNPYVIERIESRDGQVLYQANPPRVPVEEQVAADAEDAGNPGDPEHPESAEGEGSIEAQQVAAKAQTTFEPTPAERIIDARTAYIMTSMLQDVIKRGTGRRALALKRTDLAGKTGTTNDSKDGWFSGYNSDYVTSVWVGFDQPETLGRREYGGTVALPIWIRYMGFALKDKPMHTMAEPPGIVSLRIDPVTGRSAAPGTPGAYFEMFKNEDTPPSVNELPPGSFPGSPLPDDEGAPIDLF", "test": "PBP binding assay (Bocillin FL competition)", "details": "Pseudomonas PBP 1A; read-out: IC50 (converted)", "procedure": "as §2, §3"}, "[5]": {"system": "Acinetobacter baumannii NCTC 13304 producing carbapenem hydrolyzing Class D OXA enzyme (OXA 27)", "test": "Time kill study (viability count)", "format": "cell-based", "details": "Cefepime 8 μg/ml, Compound of Formula (III) 8 μg/ml, Imipenem 16 μg/ml", "procedure": "(§4) The antibacterial effectiveness of various antibacterial agents in presence of a compound of Formula (III) was investigated and the results are detailed below. In a typical study, overnight cultures in Trypticase soya broth (TSB) were brought to log phase by 1 in 10 dilution in fresh cation adjusted Mueller Hinton Broth (MHB) and incubation for 2.5 hours at 35° C. in orbital shaker. Log phase cultures were diluted to desired inoculums in flasks with MHB, containing various drug concentrations. Flasks were incubated at 35° C. in orbital shaker with rotational speed of 125 rpm. Viability count was determined by 1 in 10 serial dilutions of samples in normal saline and surface spreading of 10 μl of dilutions in duplicate on Trypticase soya agar plates. Plates were incubated for 24 hours at 35° C. and colonies were enumerated to determine the colony forming units (CFU) per ml volume."}, "[6]": {"system": "Pseudomonas aeruginosa NCTC 13437 producing carbapenem hydrolyzing MBL (VIM 10) & Class A (VEB1)", "test": "Time kill study (viability count)", "format": "cell-based", "details": "Cefepime 8 μg/ml, Compound of Formula (III) 8 μg/ml, Imipenem 16 μg/ml", "procedure": "as §4"}, "K. pneumoniae B88 [7]": {"system": "K. pneumoniae B88", "test": "MIC determination", "format": "cell-based", "details": "Klebsiella pneumoniae; K. pneumoniae B88 (NDM, SHV, TEM)", "procedure": "(§5) In a typical procedure for determining MIC values, overnight grown bacterial cultures were diluted appropriately and inoculated on the agar media containing doubling concentrations of the test compounds. Observation for growth or no growth was performed after 16-20 hours of incubation at 35±2° C. in ambient air. The overall procedure was performed as per Clinical and Laboratory Standards Institute (CLSI) recommendations (Clinical and Laboratory Standards Institute (CLSI), Performance Standards for Antimicrobial Susceptibility Testing, 20th Informational Supplement, M 100-S20, Volume 30, No. 1, 2010)."}, "P. mirabilis G 186 [8]": {"system": "P. mirabilis G 186", "test": "MIC determination", "format": "cell-based", "details": "Proteus mirabilis, G186; P. mirabilis G 186 (NDM, TEM)", "procedure": "as §5"}, "Pseudomonas PBP 3": {"biological_target": "T2, Pseudomonas PBP 3 (Pseudomonas aeruginosa, UniProt G3XD46)", "T2 construct": "endogenous in cells", "T2 sequence (G3XD46 whole entry)": "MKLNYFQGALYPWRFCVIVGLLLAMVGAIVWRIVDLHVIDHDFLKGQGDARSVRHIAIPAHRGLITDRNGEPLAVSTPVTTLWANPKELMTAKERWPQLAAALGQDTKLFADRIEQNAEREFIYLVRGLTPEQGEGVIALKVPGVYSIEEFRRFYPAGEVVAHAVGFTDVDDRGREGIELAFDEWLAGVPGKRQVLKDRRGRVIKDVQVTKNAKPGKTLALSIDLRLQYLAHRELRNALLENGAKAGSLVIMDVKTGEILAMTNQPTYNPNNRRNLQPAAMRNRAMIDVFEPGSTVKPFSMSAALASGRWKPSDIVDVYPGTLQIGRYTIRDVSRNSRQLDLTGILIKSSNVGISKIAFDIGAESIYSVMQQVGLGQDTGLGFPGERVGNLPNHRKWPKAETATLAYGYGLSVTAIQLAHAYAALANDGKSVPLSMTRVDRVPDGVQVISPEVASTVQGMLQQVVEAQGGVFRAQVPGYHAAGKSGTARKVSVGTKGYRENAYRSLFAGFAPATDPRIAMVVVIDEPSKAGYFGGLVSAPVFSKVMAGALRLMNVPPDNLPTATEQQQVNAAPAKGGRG", "test": "biochemical", "format": "binding", "procedure": "The phrase “selective and high affinity PBP binder” refers to a PBP binder which binds to only one PBP with very high affinity. In general, the term “selective and high affinity PBP binder” also includes those binders where a substantial fraction of binder selectively binds to only one PBP with high affinity.\nThe reaction mixtures were then denatured with 20 μl each of SDS-denaturing solution at 100° C. for 3 min PBPs were separated through 10% SDS polyacrylamide gel electrophoresis (Bio-Rad Laboratories, Hercules, Calif.). The protein gels were rinsed in water immediately after electrophoresis."}}, "note": "pIC50: −log10 of the molar value.", "data": [{"smiles": "CO/N=C(\\C(=O)N[C@@H]1C(=O)N2C(C(=O)[O-])=C(C[N+]3(C)CCCC3)CS[C@H]12)c1csc(N)n1", "note": "[Cefepime]", "values": [{"measurement": "MFC", "setting": "P. mirabilis G 186 [1]", "value": 8, "unit": "µg/mL"}, {"measurement": "MFC", "setting": "K. pneumoniae B88 [2]", "value": 8, "unit": "µg/mL"}, {"measurement": "Bacterial count", "setting": "[3]; 0 hour", "value": 6.14, "unit": "Log10 CFU/ml"}, {"measurement": "Bacterial count", "setting": "[3]; 2 hours", "value": 6.65, "unit": "Log10 CFU/ml"}, {"measurement": "Bacterial count", "setting": "[3]; 4 hours", "value": 8.30, "unit": "Log10 CFU/ml"}, {"measurement": "Bacterial count", "setting": "[3]; 6 hours", "value": 9.11, "unit": "Log10 CFU/ml"}, {"measurement": "Bacterial count", "setting": "[3]; 8 hours", "value": 9.04, "unit": "Log10 CFU/ml"}, {"measurement": "Antibacterial activity (in words)", "setting": "[3]; Klebsiella pneumoniae B 88, at MFC and MSC concentration, Table 13", "value": "did not exhibit antibacterial activity"}, {"measurement": "Bacterial count", "setting": "[4]; 0 hour", "value": 6.58, "unit": "Log10 CFU/ml"}, {"measurement": "Bacterial count", "setting": "[4]; 2 hours", "value": 6.04, "unit": "Log10 CFU/ml"}, {"measurement": "Bacterial count", "setting": "[4]; 4 hours", "value": 7.93, "unit": "Log10 CFU/ml"}, {"measurement": "Bacterial count", "setting": "[4]; 6 hours", "value": 8.66, "unit": "Log10 CFU/ml"}, {"measurement": "Bacterial count", "setting": "[4]; 8 hours", "value": 8.85, "unit": "Log10 CFU/ml"}, {"measurement": "Antibacterial activity (in words)", "setting": "[4]; P. mirabilis G 186, at MFC and MSC concentration, Table 14", "value": "did not exhibit antibacterial activity"}, {"measurement": "pIC50", "setting": "Pseudomonas PBP 5/6", "value": "< 5.08"}, {"measurement": "IC50", "setting": "Pseudomonas PBP 1A", "value": 0.25, "unit": "µM"}, {"measurement": "Bacterial count", "setting": "[5]; 0 hour", "value": "6.3 log (CFU/ml)"}, {"measurement": "Bacterial count", "setting": "[5]; 2 hours", "value": "7.3 log (CFU/ml)"}, {"measurement": "Bacterial count", "setting": "[5]; 4 hours", "value": "7.5 log (CFU/ml)"}, {"measurement": "Bacterial count", "setting": "[5]; 6 hours", "value": "7.8 log (CFU/ml)"}, {"measurement": "Bacterial count", "setting": "[5]; 8 hours", "value": "8.0 log (CFU/ml)"}, {"measurement": "Bacterial count", "setting": "[6]; 0 hour", "value": "6.0 log (CFU/ml)"}, {"measurement": "Bacterial count", "setting": "[6]; 2 hours", "value": "6.49 log (CFU/ml)"}, {"measurement": "Bacterial count", "setting": "[6]; 4 hours", "value": "7.74 log (CFU/ml)"}, {"measurement": "Bacterial count", "setting": "[6]; 6 hours", "value": "8.02 log (CFU/ml)"}, {"measurement": "Bacterial count", "setting": "[6]; 12 hours", "value": "8.8 log (CFU/ml)"}, {"measurement": "MIC", "setting": "K. pneumoniae B88 [7]", "value": "> 64", "unit": "µg/mL"}, {"measurement": "MIC", "setting": "P. mirabilis G 186 [8]", "value": "> 64", "unit": "µg/mL"}, {"measurement": "pIC50", "setting": "Pseudomonas PBP 3", "value": 6.51}]}]}
